Reference: patent US7235547B2, “Pharmaceutical composition comprising an AChE inhibitor and a mGluR2 antagonist” (priority 2003, dated 2007)
Structures can show the parent of a compound that is named as a salt.

Tested on: scopolamine-induced working memory deficit
Experiment: scopolamine-induced working memory deficit in the delayed match to position (DMTP) task in rats
Format: in vivo, Male Lister Hooded rats
Settings: for effect on the scopolamine deficit in DMTP task (percent correct responses): combination: Compound 23 1 mg/kg p.o. 180 min prior to testing, donepezil hydrochloride 1 mg/kg p.o. 145 min later, scopolamine 0.06 mg/kg s.c. 5 min later
Description: Except for during testing, water was available ad libitum at all times. The rats were tested in Med Associates operant chambers, equipped with 2 retractable levers positioned 7.5 cm either side of a central food tray. A single stimulus light (cue light) was positioned above each lever. Aluminum barriers (5.5 cm chamber extension) were fitted within the chamber to separate each lever from the food magazine. The chambers were controlled by Kestrel software (Conclusive Solutions, Harlow, UK) operating on an IBM compatible PC.
Rats were initially trained to lever press for a food reward (45 mg Formula ‘P’ pellet, Noyes, N.H.) on a continuous reinforcement (CRF) schedule with each lever presented singly an equal number of times (total 96 trials). On acquiring this behaviour the animals were next trained to make a matching response. Each trial consisted of a single lever being inserted into the chamber and the illumination of the appropriate stimulus light (sample stage). The rat was required to press the sample lever, which then immediately retracted. […] If the animal pressed the other lever, it was recorded as an incorrect response and was unrewarded. […] The next trial was signalled by illumination of the house light for a 5 s period, after which the sample lever was extended. The number of such trials per session was 96.
Initially, the delay between the sample and choice stage was 1 s after the first magazine nose poke. Once the animals had learned the matching rule (≧90% correct), the delay period was increased to 1, 2 and 4 s (32 trials per delay), up to a final level of 1, 2, 4, 8, 16, 24s. Sixteen trials were run at each delay. […] The parameters measured include % correct (total no. correct/(total no. correct+incorrect)×100) both for the total session and for each delay interval. Percent correct responses at each delay interval were analysed using an analysis of variance (ANOVA) with repeated measures on Treatment and Delay. Total percent correct responses were analysed using an ANOVA with repeated measures on Treatment. Post hoc tests were conducted by Newman-Keuls test. Statistical significance was accepted at P<0.05.
The experiment was conducted using a repeated measures design with each animal receiving each treatment according to a counterbalanced design. Animals were run 5 days/-week, with drug treatment on 2 test days per week, separated by at least 2 days. […] Scopolamine hydrobromide was dissolved in saline solution and was administered s.c. using an injection volume of 1 ml/kg.

Row | Structure (SMILES) | effect on the scopolamine deficit in DMTP task (percent correct responses) | total correct responses collapsed over the delay intervals (scopolamine 0.06 mg/kg s.c.) | percent correct responses (per delay interval) (scopolamine 0.06 mg/kg s.c., delays 1-24 s)
1 | COc1cc2c(cc1OC)C(=O)C(CC1CCN(Cc3ccccc3)CC1)C2 (stereo not shown) [donepezil hydrochloride] | reversal of the scopolamine deficit | – | –
2 | Cc1cc(-c2cccc(C3=Nc4cc(C)c(C(F)(F)F)cc4NC(=O)C3)c2)cc(C)n1 [Compound 23, 4-[3-(2,6-dimethyl-pyridin-4-yl)-phenyl]-7-methyl-8-trifluoromethyl-1,3-dihydro benzo[b][1,4]diazepin-2-one] | reversal of the scopolamine deficit | – | –
3 | CN1[C@@H]2C[C@@H](OC(=O)[C@H](CO)c3ccccc3)C[C@H]1[C@@H]1O[C@@H]12 [Scopolamine, Scopolamine hydrobromide] | – | significant reduction | significant delay-dependent reduction
